Test results taken from US6410566B1, “Cyclic amine derivatives and their use as drugs” (Teijin Limited, priority 2000, dated 2002).

Assays:
[1] = molecular target: T1, binding of human MCP-1 to THP-1 cells (Homo sapiens, UniProt P41597); experiment: Inhibition of binding of [125I]-labeled baculovirus expressed human MCP-1 to THP-1 cells (Method 2); details: Method 2, at 1 μM
T1 construct: endogenous in cells; host or cells: THP-1 (human monocytic leukemia cell line), whole cells
T1 sequence (P41597 1-360 isoform P41597-2): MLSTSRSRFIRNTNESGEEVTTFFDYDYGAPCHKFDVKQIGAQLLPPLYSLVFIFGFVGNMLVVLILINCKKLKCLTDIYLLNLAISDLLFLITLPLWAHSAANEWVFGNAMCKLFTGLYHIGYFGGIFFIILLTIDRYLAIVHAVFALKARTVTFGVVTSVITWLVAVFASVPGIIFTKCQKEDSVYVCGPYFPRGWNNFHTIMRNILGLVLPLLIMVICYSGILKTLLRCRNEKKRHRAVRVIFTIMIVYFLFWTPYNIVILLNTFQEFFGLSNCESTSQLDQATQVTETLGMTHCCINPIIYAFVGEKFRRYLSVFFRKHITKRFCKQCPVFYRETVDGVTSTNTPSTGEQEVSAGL
From the text: 1. Construction of recombinant baculovirus carrying the human MCP-1 gene
Based on the previously published human MCP-1 gene sequence (for example T. Yoshirnura et al., FEBS Lett., 1989, 244, 487-493), two synthetic DNA primers (5′-[…]-3′ and 5′-[…]-3′) flanked by restriction enzyme sites were used to amplify a DNA fragment from cDNA derived from human endothelial cells (purchased from Kurabow Co.); the amplified fragment was cut with the restriction enzymes (PstI and XbaI), ligated into a transfer vector pVL1393 (Invitrogen Co.), and the resulting vector was co-transfected along with infectious baculovirus into Sf-9 insect cells and the supernatant was plaque assayed to yield human MCP-1 gene baculovirus recombinant.
2. Synthesis of [^125I]-labeled human MCP-1 expressed in baculovirus
Using the method of K. Ishii et al. (Biochem Biophys Research Communications, 1995, 206, 955-961), 5×10^6 Sf-6 insect cells was infected with 5×10^7 PFU (plaque forming units) of the above human MCP-1 recombinant baculovirus and cultured for 7 days in Ex-Cell 401 medium. The culture supernatant was affinity purified using a heparin Sepharose column (Pharmacia Co.) and then further purified using reverse phase HPLC (Vydac C18 column) to prepare purified human MCP-1. The purified human MCP-1 was protein labeled by Amersham Co. using the Bolton Hunter method to yield [^125I]-labeled baculovirus expressed human MCP-1 (specific activity 2000 Ci/mmol).
3-2. Measurement of inhibition of binding of [^125I]-labeled baculovirus expressed human MCP-1 to THP-1 cells (Method 2)
Human monocytic leukemia cell line THP-1 was suspended in assay buffer (50 mM HEPES, pH 7.4, 1.0 mM CaCl2, 5.0% mM MgCl2, 0.5% BSA) to give a cell suspension of a concentration of 1×10^7 cells/mL. The test compound was diluted in the assay buffer and used as the test compound solution. [^125I]-labeled human MCP-1 described above was diluted in assay buffer to 1 mCi/mL and used as the labeled ligand solution. In a 96 well filter plate (Millipore Co.), 25 μL of test compound solution, 25 μL of labeled ligand solution and 50 μL of cell suspension were aliquoted into each well in this order, stirred (total reaction volume 100 μL), and incubated for one hour at 18° C.
After the reaction, the reaction solution was filtered, and the filter was washed twice with 200 μL of cold PBS (200 μL of cold PBS was added and then filtered). The filter was air-dried and 25 μL of liquid scintillator was added into each well. The radioactivity retained by the cells on the filter were measured using TopCount (Packard Instrument Co.).
To calculate the ability of test compound to inhibit binding of human MCP-1 to THP-1 cells, non-specific binding determined by adding 100 ng of unlabeled human MCP-1 in place of the test compound was subtracted, while the counts with no test compound added was taken as 100%.
Inhibition (%)={1−(A−B)/(C−B)}×100
(A, counts with test compound added; B, counts with 100 ng of unlabeled human MCP-1 added; C, counts with [^125I]-labeled human MCP-1 added).

THP-1 cells = experiment: Inhibition of cell chemotaxis caused by MCP-1; format: cell-based; details: Homo sapiens, MCP-1 20 ng/mL, read-out: inhibition of cell migration IC50
Procedure: Measurement of Inhibition of Cell Chemotaxis
In order to determine the inhibition of cell chemotaxis by the compounds of this invention, we measured cell chemotaxis caused by monocyte chemotactic factor MCP-1 using the human monocytic leukemia cell line THP-1 as the chemotactic cell according to the method of Fall et al. (J. Immunol. Methods, 190, 33,239-247). 2×10^6 cells/mL of THP-1 cells (suspended in RPMI-1640 (Flow Laboratories Co.)+10% FCS) was placed in the upper chamber (200 μL) of a 96 well micro-chemotaxis chamber (Neuroprobe; registered tradename), and human recombinant MCP-1 in a same solution (Peprotech Co.) at a final concentration of 20 ng/mL was placed in the lower chamber, with a polycarbonate filter (PVP-free, Neuroprobe; registered tradename) placed between the two chambers. These were incubated at 37° C. for 2 hr in 5% CO2.
The filter was removed, and the cells which had migrated to the underside of the filter was fixed, stained using Diff Quick (Kokusai Shiyaku Co.) and then quantitated using a plate reader (Molecular Device Co.) at a wavelength of 550 nm to determine the index of cell migration as a mean of 3 wells. In addition, test compounds were placed in the upper and lower chambers along with THP-1 and MCP-1, respectively, and the inhibition of cell migration (inhibition IC50 (μM)) was determined.

[2] = molecular target: T1, binding of human MCP-1 to THP-1 cells; experiment: Inhibition of binding of [125I]-labeled baculovirus expressed human MCP-1 to THP-1 cells (Method 1); details: for inhibition at 10 µM: Method 1, at 10 μM
From the text: Measurement of Inhibition of MCP-1 Binding to THP-1 Cells 1. Construction of recombinant baculovirus carrying the human MCP-1 gene Based on the previously published human MCP-1 gene sequence (for example T. Yoshirnura et al., FEBS Lett., 1989, 244, 487-493), two synthetic DNA primers ([NT] and [NT]) flanked by restriction enzyme sites were used to amplify a DNA fragment from cDNA derived from human endothelial cells (purchased from Kurabow Co.); the amplified fragment was cut with the restriction enzymes (PstI and XbaI), ligated into a transfer vector pVL1393 (Invitrogen Co.), and the resulting vector was co-transfected along with infectious baculovirus into Sf-9 insect cells and the supernatant was plaque assayed to yield human MCP-1 gene baculovirus recombinant. […] Using the method of K. Ishii et al. […] The culture supernatant was affinity purified using a heparin Sepharose column (Pharmacia Co.) and then further purified using reverse phase HPLC (Vydac C18 column) to prepare purified human MCP-1. […] 3-1. […] The test. compound was diluted in the assay buffer and used as the test compound solution. [^125I]-labeled human MCP-1 described above was diluted in assay buffer to 1 mCi/mL and used as the labeled ligand solution. In a 96 well filter plate (Millipore Co.), 25 μL of test compound solution, 25 μL of labeled ligand solution and 50 μL of cell suspension were aliquoted into each well in this order, stirred (total reaction volume 100 μL), and incubated for one hour at 18° C. After the reaction, the reaction solution was filtered, and the filter was washed twice with 200 μL of cold PBS (200 μL of cold PBS was added and then filtered). The filter was air-dried and 25 μL of liquid sciatillator was added into each well. The radioactivity retained by the cells on the filter were measured using TopCount (Packard Instrument Co.). To calculate the ability of test compound to inhibit binding of human MCP-1 to THP-1 cells, non-specific binding determined by adding 100 ng of unlabeled human MCP-1 in place of the test compound was subtracted, while the counts with no test compound added was taken as 100%. Inhibition (%)=(1-(A-B)/(C-B))×100 (A, counts with test compound added; B, counts with 100 ng of unlabeled human MCP-1 added; C, counts with [^125I]-labeled human MCP-1 added).

| Compound | inhibition at 1 µM [1] [%] | IC50 (THP-1 cells) [nM] | inhibition at 100 µM ([2]; Method 1, at 100 μM) [%] | inhibition at 10 µM [2] [%] |
| --- | --- | --- | --- | --- |
| Cc1ccc(CN2CCC(CNC(=O)CNC(=O)c3cc(F)c(F)cc3N)CC2)cc1N [Compound No. 2114, 4-[{N-(2-Amino-4,5-difluorobenzoyl)glycyl}aminomethyl]-1-(3-amino-4-methylbenzyl)piperidine] | > 80 | < 100 | – | – |
| Nc1cc(Cl)ccc1CN1CC[C@@H](NC(=O)CNC(=O)c2cc(OC(F)(F)F)ccc2N)C1 [Compound No. 1921, (R)-3-[{N-(2-Amino-5-trifluoromethoxybenzoyl)glycyl}amino]-1-(2-amino-4-chlorobenzyl)pyrrolidine] | > 80 | < 100 | – | – |
| O=C(CNC(=O)Nc1ccc(C(F)(F)F)cc1)NCC1CCN(Cc2ccc(Cl)cc2)CC1 [Compound No. 852, 1-(4-Chlorobenzyl)-4-[{2-(3-(4-trifluoromethylphenyl)ureido)acetylamino}methyl]piperidine] | – | – | > 80 | – |
| O=C(CNC(=O)c1ccccc1)NCC1CCCN(Cc2ccc(Cl)cc2)C1 (stereo not drawn) [Compound No. 434, 3-{(N-Benzoylglycyl)amino}methyl-1-(4-chlorobenzyl)piperidine] | – | – | – | 50 to 80 |
| NC(=O)c1ccc(CN2CCC(CNC(=O)CNC(=O)c3cccc(C(F)(F)F)c3)CC2)cc1 [Compound No. 925, 1-(4-Carbamoylbenzyl)-4-[{N-(3-(trifluoromethyl)benzoyl)glycyl}aminomethyl]piperidine] | – | – | – | 20 to 50 |
| CN(C)c1ccc(CN2CCC(CNC(=O)CNC(=O)c3cccc(C(F)(F)F)c3)CC2)cc1 [Compound No. 937, 1-{4-(Dimethylamino)benzyl}-4-[{N-(3-(trifluoromethyl)benzoyl)glycyl}aminomethyl]piperidine] | – | – | – | 50 to 80 |
| Nc1cc(CN2CCC(CNC(=O)CNC(=O)c3cc(F)c(F)cc3N)CC2)ccc1O [Compound No. 2141, 4-[{N-(2-amino-4,5-difluorobenzoyl)glycyl}aminomethyl]-1-(3-amino-4-hydroxybenzyl)piperidine] | – | < 100 | – | – |

The remaining lines, values ahead:

| inhibition at 1 µM [1] [%] | IC50 (THP-1 cells) [nM] | inhibition at 100 µM ([2]; Method 1, at 100 μM) [%] | inhibition at 10 µM [2] [%] | Compound |
| --- | --- | --- | --- | --- |
| > 80 | < 100 | – | – | COc1ccc(CN2CC[C@@H](NC(=O)CNC(=O)c3cc(OC(F)(F)F)ccc3N)C2)cc1O [Compound No. 1896, (R)-3-[{N-(2-Amino-5-trifluoromethoxybenzoyl)glycyl}amino]-1-(3-hydroxy-4-methoxybenzyl)pyrrolidine] |
| > 80 | < 100 | – | – | Cc1noc(C)c1CN1CC[C@@H](NC(=O)CNC(=O)c2cc(F)cc(C(F)(F)F)c2)C1 [compound 1191, (R)-3-[N-(3-Fluoro-5(trifluoromethyl)benzoyl)glycyl]amino-1-(3,5-dimethylisoxazol-4-ylmethyl)pyrrolidine] |
| > 80 | < 100 | – | – | C=Cc1ccc(CN2CC[C@@H](NC(=O)CNC(=O)c3cc(C(F)(F)F)ccc3N)C2)cc1 [Compound No. 1701, (R)-3-[{N-(2-Amino-5-(trifluoromethyl)benzoyl)glycyl}amino]-1-(4-vinylbenzyl)pyrrolidine] |
| > 80 | < 100 | – | – | Nc1cc(CN2CC[C@@H](NC(=O)CNC(=O)c3cc(C(F)(F)F)ccc3N)C2)ccc1Cl [Compound No. 2132, (R)-1-(3-Amino-4-chlorobenzyl)-3-[{N-(2-amino-5-trifluoromethylbenzoyl)glycyl}amino]pyrrolidine] |
| – | < 100 | – | – | CNc1cc(CN2CC[C@@H](NC(=O)CNC(=O)c3cc(C(F)(F)F)ccc3N)C2)ccc1O [Compound No. 2158, (R)-3-[{N-(2-Amino-5-trifluoromethylbenzoyl)glycyl}amino]-1-(3-methylamino-4-hydroxybenzyl)pyrrolidine] |
